Experimental data as given in patent US9642829B2, “Antifungal compound and uses thereof” (The University of Hong Kong, priority 2012, dated 2017).

What was measured:
[1] = test system: C. albicans biofilms; assay: Mono species Candida biofilm MIC, XTT assay; format: cell-based, Candida albicans; conditions: for Minimum inhibitory concentration of 48 h Candida biofilms: 48 h C. albicans biofilms; for Biofilm MIC90: 24 h C. albicans biofilms, 24 h drug exposure, XTT
Method: (§1) For instance, we have previously shown the resistance of Candida biofilms against amphotericin and caspofungin. Therefore, next using standard biofilm assays we have established in our laboratory, we examined the effect of SM21 against Candida biofilms. In brief, Candida cells were grown in SDA medium at 37° C. for 18 h. Then a loopful of the yeast was inoculated into the yeast nitrogen base (YNB; Difco) medium supplemented with 50 mM glucose in a rotary shaker at 75 rpm. After overnight broth culture, the yeasts were harvested in the late exponential growth phase and washed twice with 20 ml of phosphate buffer saline (PBS; pH 7.2. 0.1 M) prior to use in the biofilm studies. Candida biofilms were developed according to a previously published protocol. In brief, washed yeast cells were resuspended in YNB supplemented with 100 mM glucose and adjusted to an optical density of 0.38 at 520 nm (1×10^7 cells/ml). The standard cell suspension was used immediately to develop biofilms on commercially available presterilized, polystyrene, 96-well plate (IWAKI, Tokyo, Japan). At first, 100 μl of standardized cell suspension (1×10^7 cells/ml) was pipetted into each well of a microtiter plate and incubated for 1.5 h at 37° C. in a shaker at 75 rpm to permit yeast adherence to the well surface (adherence phase). For controls, a well of each microtiter plate was handled in an identical fashion except that no Candida suspension was added. Following the adhesion phase, the cell suspensions were aspirated, and each well washed with 100 μl of PBS to remove loosely adherent cells. 200 μl of YNB with 100 mM glucose were then pipetted into each of the washed wells and the plates incubated at 37° C. in a shaker at 75 rpm for 24 or 48 h. After biofilm growth phase microscopic examination of the cultures were performed to rule out contamination. Then, the suspending medium was aspirated and biofilms were washed with 100 μl PBS to remove the nonadherent cells. The stock solutions were diluted twofold with RPMI 1640 supplemented with 2% glucose to obtain SM21 concentration from 100 to 0.2 μg/ml drug concentrations. In parallel, other antifungal agents such as caspofungin (100 to 0.1 μg/ml) and amphotericin B (240 μg/ml to 0.225 μg/ml) was also prepared as describe above. A total of 100 μl of drug solution was added to the microtiter plate containing Candida biofilms. Biofilms were then incubated at 37° C. for 24 h with the antifungals and afterwards metabolic activity of fungal cells was determined by the XTT [2,3-bis(2-methoxy-4-nitro-5-sulfophenyl)-2H-tetrazolium-5-carboxanilide sodium salt] assay (17, 28). Candida biofilm MIC90 was defined as the lowest drug concentration with 90% reduction in opacity compared with the drug free control. Each experiment was repeated three times with four replicates.

[2] = test system: C. krusei biofilms; assay: Mono species Candida biofilm MIC, XTT assay; format: cell-based; conditions: 48 h C. krusei biofilms
Method: as §1

[3] = test system: C. glabrata biofilms; assay: Mono species Candida biofilm MIC, XTT assay; format: cell-based; conditions: 48 h C. glabrata biofilms
Method: as §1

[4] = test system: C. glabrata; assay: Antifungal susceptibility (MIC/MFC), CLSI criteria; format: cell-based, Candida glabrata; conditions: C. glabrata ATCC; 0.5 McFarland inoculum (10^6 cells/ml)
Method: (§2) Antifungal activity of the small molecules was evaluated using USA standards, Clinical and Laboratory Standards Institute (CLSI) criteria. In brief, inocula from 24 h Candida cultures on Sabourauds's dextore agar were standardized to a turbidity equivalent of 0.5 McFarland standards at 520 nm with a spectrophotometer. The suspensions were further diluted in Rosewell Park Memorial Institute (RPMI) 1640 medium (Life technologies, New York, USA) to yield an inoculum concentration of approximately 0.5 1×10^3 to 2.5 1×10^3 cells/ml. Minimum inhibitory concentration (MIC) and minimum fungicidal concentration (MFC) assay was performed in 96-well plates (Iwaki, Tokyo, Japan) and each of the Candida species was exposed to a double dilution of SM21. Amphotericin B was used as a positive control. All the experiments were preformed three occasions with duplicates for all isolates. The plates were incubated at 35° C. for 48 h to evaluate MIC. In the case of Cryotococcus neoformans, reading were taken after 72 h. Aforementioned assay was performed for C. albicans ATCC 90028, C. albicans SC5314 and 10 C. albicans clinical isolates. Moreover, MIC/MFC determination was carried out for other fungal species such as C. glabrata, C. krusei, C. tropicalis, C. parapsilosis, C. neoformans, Aspergillus fumigates and Penicillium marneffei. […]

[5] = test system: resistant isolate T-1549; assay: Antifungal activity compared with caspofungin and amphotericin B (FIG. 2, CLSI M44-A disc diffusion); format: cell-based, C. guilliermondii; conditions: resistant isolate T-1549 (FIG. 2C)
Source text: (§3) Oral Biosciences laboratory has one of the largest collections of fungal isolates, particular that of Candida species in the world. In our previous studies, we have found multidrug resistant clinical isolates of Candida species against existing antifungals. In particular, some of these strains are resistant to best antifungal agents to date such as caspofungin, amphotericin B and fluconazole. Therefore, we performed antifungal susceptibility testing for SM21 against these drug resistant Candida isolates suing CLSI M27A brothmicrodultion assay and CLSI M44-A disc diffusion assay.

[6] = test system: C. krusei; assay: Antifungal susceptibility (MIC/MFC), CLSI criteria; format: cell-based, Candida krusei; conditions: C. krusei ATCC; 0.5 McFarland inoculum (10^6 cells/ml)
Method: as §2

[7] = test system: C. albicans SC5314 and C. albicans ATCC 90028; assay: Antifungal activity compared with caspofungin and amphotericin B (FIG. 2, CLSI M44-A disc diffusion); format: cell-based, Candida albicans
Source text: as §3

[8] = test system: C. albicans; assay: Dose-dependent assay of MIC/MFC at different cell densities; format: cell-based, Candida albicans; set-up: unit not given here
Method: (§4) Antifungal activity of the small molecules was evaluated using USA standards, Clinical and Laboratory Standards Institute (CLSI) criteria. In brief, inocula from 24 h Candida cultures on Sabourauds's dextore agar were standardized to a turbidity equivalent of 0.5 McFarland standards at 520 nm with a spectrophotometer. The suspensions were further diluted in Rosewell Park Memorial Institute (RPMI) 1640 medium (Life technologies, New York, USA) to yield an inoculum concentration of approximately 0.5 1×10^3 to 2.5 1×10^3 cells/ml. Minimum inhibitory concentration (MIC) and minimum fungicidal concentration (MFC) assay was performed in 96-well plates (Iwaki, Tokyo, Japan) and each of the Candida species was exposed to a double dilution of SM21. Amphotericin B was used as a positive control. All the experiments were preformed three occasions with duplicates for all isolates. The plates were incubated at 35° C. for 48 h to evaluate MIC. In the case of Cryotococcus neoformans, reading were taken after 72 h. Aforementioned assay was performed for C. albicans ATCC 90028, C. albicans SC5314 and 10 C. albicans clinical isolates. Moreover, MIC/MFC determination was carried out for other fungal species such as C. glabrata, C. krusei, C. tropicalis, C. parapsilosis, C. neoformans, Aspergillus fumigates and Penicillium marneffei. […] Next using dose-dependent assay we tested that MIC/MFC of SM21 from 10^3 cells/ml to 10^7 cells/ml of C. albicans (Table 2). Each of the foregoing experiment was repeated on three different occasions.

[9] = test system: C. parapsilosis; assay: Antifungal susceptibility (MIC/MFC), CLSI criteria; format: cell-based, Candida parapsilosis; conditions: C. parapsilosis ATCC; 0.5 McFarland inoculum (10^6 cells/ml)
Method: as §2

[10] = test system: C. neoformans; assay: Antifungal susceptibility (MIC/MFC), CLSI criteria, reading after 72 h; format: cell-based, Cryptococcus neoformans; conditions: 0.5 McFarland inoculum (10^6 cells/ml)
Method: as §2

[11] = test system: C. tropicalis; assay: Antifungal susceptibility (MIC/MFC), CLSI criteria; format: cell-based, Candida tropicalis; conditions: C. tropicalis ATCC; 0.5 McFarland inoculum (10^6 cells/ml)
Method: as §2

[12] = test system: C. albicans; assay: Antifungal susceptibility (MIC/MFC), CLSI criteria, 96-well double dilution; format: cell-based, Candida albicans; conditions: 0.5 McFarland inoculum (10^6 cells/ml)
Method: as §4

[13] = test system: Penicillium marneffei; assay: Antifungal susceptibility (MIC/MFC), CLSI criteria; format: cell-based; conditions: 0.5 McFarland inoculum (10^6 cells/ml)
Method: as §4

[14] = test system: Aspergillus fumigatus; assay: Antifungal susceptibility (MIC/MFC), CLSI criteria; format: cell-based; conditions: 0.5 McFarland inoculum (10^6 cells/ml)
Method: as §4

[15] = C. albicans ATCC 90028, CLSI quality control strain (FIG. 2B)

Nc1nc(=O)[nH]cc1F [5-fluorocytosine]
Minimum inhibitory concentration of 48 h Candida biofilms [1]: 420 µg/mL
Minimum inhibitory concentration of 48 h Candida biofilms [2]: 250 µg/mL
Minimum inhibitory concentration of 48 h Candida biofilms [3]: 420 µg/mL

C[C@@H]1[C@H](O)[C@@H](C)/C=C/C=C/C=C/C=C/C=C/C=C/C=C/[C@H](O[C@@H]2O[C@H](C)[C@@H](O)[C@H](N)[C@@H]2O)C[C@@H]2O[C@](O)(C[C@@H](O)C[C@@H](O)[C@H](O)CC[C@@H](O)C[C@@H](O)CC(=O)O[C@H]1C)C[C@H](O)[C@H]2C(=O)O [Amphotericin B, reference compound]
Susceptibility (MIC90) [4]: 0.4 µg/mL
Effectiveness against resistant isolate [5]: only SM21 was effective
Susceptibility (MIC90) [6]: 0.4 µg/mL
Susceptibility of the strain to the agent [7, 15]: susceptible
Susceptibility of the strain to the agent ([7]; C. albicans SC5314 (FIG. 2A)): susceptible
MIC/MFC ([8]; C. albicans 10^4 cells/ml): 0.2
MIC/MFC ([8]; C. albicans 10^5 cells/ml): 0.2
MIC/MFC ([8]; C. albicans 10^6 cells/ml): 0.2
MIC/MFC ([8]; C. albicans 10^7 cells/ml): 0.8
Biofilm MIC90 [1]: 32 µg/mL
Minimum inhibitory concentration of 48 h Candida biofilms [1]: 32 µg/mL
Susceptibility (MIC90) [9]: 0.8 µg/mL
Minimum inhibitory concentration of 48 h Candida biofilms [2]: 32 µg/mL
Minimum inhibitory concentration of 48 h Candida biofilms [3]: 16 µg/mL
Susceptibility (MIC90) [10]: 0.4 µg/mL
Susceptibility (MIC90) [11]: 0.8 µg/mL
Susceptibility (MIC90) ([12]; C. albicans ATCC 90028): 0.2 µg/mL
Susceptibility (MIC90) ([12]; C. albicans CL1): 0.2 µg/mL
Susceptibility (MIC90) ([12]; C. albicans CL2): 0.4 µg/mL
Susceptibility (MIC90) ([12]; C. albicans CL3): 0.4 µg/mL
Susceptibility (MIC90) ([12]; C. albicans CL4): 0.2 µg/mL
Susceptibility (MIC90) ([12]; C. albicans CL5): 0.2 µg/mL
Susceptibility (MIC90) ([12]; C. albicans CL6): 0.2 µg/mL
Susceptibility (MIC90) ([12]; C. albicans CL7): 0.2 µg/mL
Susceptibility (MIC90) ([12]; C. albicans CL8): 0.4 µg/mL
Susceptibility (MIC90) ([12]; C. albicans CL9): 0.4 µg/mL
Susceptibility (MIC90) ([12]; C. albicans CL10): 0.2 µg/mL
Susceptibility (MIC90) ([12]; C. albicans SC5314): 0.2 µg/mL
Susceptibility (MIC90) [13]: 0.05 µg/mL
Susceptibility (MIC90) [14]: 1.56 µg/mL

CC[C@H](C)C[C@H](C)CCCCCCCCC(=O)N[C@H]1C[C@@H](O)[C@@H](NCCN)NC(=O)[C@@H]2[C@@H](O)CCN2C(=O)[C@H]([C@H](O)CCN)NC(=O)[C@H]([C@H](O)[C@@H](O)c2ccc(O)cc2)NC(=O)[C@@H]2C[C@@H](O)CN2C(=O)[C@H]([C@@H](C)O)NC1=O [Caspofungin]
Effectiveness against resistant isolate [5]: only SM21 was effective
Susceptibility of the strain to the agent [7, 15]: susceptible
Susceptibility of the strain to the agent ([7]; C. albicans SC5314 (FIG. 2A)): susceptible
Biofilm MIC90 [1]: 50 µg/mL
Minimum inhibitory concentration of 48 h Candida biofilms [1]: 100 µg/mL
Minimum inhibitory concentration of 48 h Candida biofilms [2]: 100 µg/mL
Minimum inhibitory concentration of 48 h Candida biofilms [3]: 100 µg/mL

CC(=O)N1CCN(c2ccc(OCC3COC(Cn4ccnc4)(c4ccc(Cl)cc4Cl)O3)cc2)CC1 (stereo not shown) [Ketoconazole]
Minimum inhibitory concentration of 48 h Candida biofilms [1]: 64 µg/mL
Minimum inhibitory concentration of 48 h Candida biofilms [2]: 64 µg/mL
Minimum inhibitory concentration of 48 h Candida biofilms [3]: 64 µg/mL
